# Assay results published in patent US5456908A, “Polyamine-polyamine and polyamine-protein transport inhibitor conjugates and their use as pharmaceuticals and in research relating to polyamine transport” (priority 1994, dated 1995).
# Where two headings read alike, the source gives them in different places.
# Legend:
# [1] = tested on: cultured pulmonary artery smooth muscle cells; assay: Hypoxia-induced fibronectin synthesis; type: cell-based, bovine
# Description: This experiment was effected because hypoxic pulmonary hypertension is accompanied by the deposition of large quantities of fibronectin around pulmonary arteries. Therefore, there is some belief by researchers, including the present inventors, that the increased deposition of this protein may be an important cause of the sustained elevation in pulmonary arterial blood pressure. Also, hypoxia seems to cause pulmonary hypertension by a mechanism related to increased polyamine transport rather than increased de novo polyamine synthesis.
# [2] = tested on: MES-SA human uterine sarcoma cells; assay: 14C-polyamine uptake, MES-SA; type: cell-based; details: DFMO (1 mM), 24 hours
# Method: (§1) Additional studies were conducted to determine whether MES-SA and DX5 cell lines express a polyamine transport system, and, if so, whether this system(s) was inhibited by the poly-PUT and poly-SPM conjugate. […] In the current studies, ^14 C-SPD was added in concentrations of 3 μM and cells were incubated for 30 minutes at selected temperatures (4° and 37° C). The cells were rinsed with Hanks buffer, digested for 1 hour in 1N NaOH, and cell-associated radioactivity was determined. ^14 C-SPD uptake rate was normalized to protein content. Specific, carrier-mediated polyamine uptake was […] determined at […].
# (§2) In many cells, DFMO increases polyamine transport. This is believed to be a compensatory mechanism that protects these cells from polyamine depletion. […] We therefore examined the impact of DFMO on polyamine transport rate and on vinblastine accumulation and cytotoxicity in MES-SA and DX5 cells.
# [3] = tested on: DX5 human uterine sarcoma cells (MDR-positive); assay: 14C-polyamine uptake, DX5; type: cell-based; details: DFMO (1 mM), 24 hours
# Method: as §1, §2
# [4] = tested on: MES-SA human cancer cells; assay: Cellular polyamine content by HPLC, MES-SA; type: cell-based; details: DFMO 1 mM, Poly-SPM 20 μM
# Method: (§3) To determine if the cytotoxicity and inhibition of polyamine transport evoked by the polyamine conjugates was,associated with depletion of cell polyamine contents, additional experiments were conducted which used HPLC to measure contents of PUT, SPD, and SPM in human uterine sarcoma and leukemia cells in the presence of poly-SPM, DFMO, and combined treatment with poly-SPM and DFMO. The latter combination was tested to determine if blockade of both transport and synthesis would promote greater decreases in polyamine content than either intervention alone. […] Further studies are planned to obtain further information regarding interactions between these pathways and their suitabilities as pharmacologic targets.
# DX5 human cancer cells = assay: Cellular polyamine content by HPLC, DX5; type: cell-based; details: DFMO 1 mM, Poly-SPM 20 μM
# Method: as §3
# K562 human cancer cells = assay: Cellular polyamine content by HPLC, K562; type: cell-based; details: DFMO 1 mM, Poly-SPM 20 μM
# Method: as §3
# [5] = tested on: K562/R7 human cancer cells; assay: Cellular polyamine content by HPLC, K562/R7; type: cell-based; details: DFMO 1 mM, Poly-SPM 20 μM
# Method: as §3
# [6] = tested on: MES-SA human uterine sarcoma cells; assay: Cellular content of MDR substrates (vinblastine, Taxol), MES-SA; type: cell-based; details: DFMO (1 mM)
# [7] = tested on: DX5 human uterine sarcoma cells (MDR-positive); assay: Cellular content of MDR substrates (vinblastine, Taxol), DX5; type: cell-based; details: DFMO (1 mM)
# Method: Complimentary experiments were conducted to determine whether the polyamine uptake inhibitors differentially affected the cytotoxicity and cellular uptake of vinblastine in MDR-negative and MDR-positive uterine sarcoma cells.
# [8] = tested on: L1210-MGBGr leukemic cell line deficient in polyamine transport; details: polyamine synthesis blocked by DFMO; Ask et al.; cited from earlier work
# [9] = tested on: non-mutant polyamine transport L1210 cells; details: DFMO treatment; Ask et al.; cited from earlier work
# [10] = tested on: DX5 human uterine sarcoma cells (MDR-positive); assay: MTT cytotoxicity assay, DX5; details: for IC50: Homo sapiens
# Method: (§4) Cytotoxicity was assessed using the MTT assay in MES-SA and DX5 uterine sarcoma cell lines after a 24 hours exposure to ascending concentrations of the putrescine polymeric conjugates (poly-PUT conjugates) or its vehicle.
# (§5) Complimentary experiments were conducted to determine whether the polyamine uptake inhibitors differentially affected the cytotoxicity and cellular uptake of vinblastine in MDR-negative and MDR-positive uterine sarcoma cells. […] The MTT assay was used to quantify the IC50 for vinblastine cytotoxicity in MES-SA and DX5 cells in the presence and absence of treatment with 100 μM poly-PUT. The calculation of cytotoxicity in these experiments accounted for the lethality associated with use of the conjugate alone.
# [11] = tested on: MES-SA human uterine sarcoma cells; assay: MTT cytotoxicity assay, MES-SA
# Method: as §4, §5
# [12] = tested on: R7 cells (MDR-positive variant of K567); assay: Cytotoxicity, R7 leukemia cells; details: DFMO at 1 mM concentration; MDR-positive variant of K562
# [13] = tested on: K567 Human leukemia cells; assay: Cytotoxicity, K567 leukemia cells; details: DFMO at 1 mM concentration; printed K562
# [14] = tested on: cultured pulmonary artery smooth muscle cells treated with DFMO; assay: 14C-polyamine uptake in DFMO-treated pulmonary artery smooth muscle cells; details: Bos taurus, 24 h, read-out: increase of polyamine uptake relative to control cells
# Method: DFMO treatment consisted of the addition of 1 mM of DFMO to the cultures followed by a 24 hour incubation period.
# After DFMO treatment and incubation, the respective conjugates were added in amounts ranging from about 0 to 20 μM simultaneously with 3 μM of a specific ^14 C-polyamine and the cells allowed to incubate for 30 minutes. After incubation, the content of cell associated radioactivity was determined.
# [15] = tested on: MES-SA human uterine sarcoma cells
# Method: as §4, §5
# [16] = tested on: DX5 human uterine sarcoma cells (MDR-positive)
# Method: as §4, §5
# [17] = tested on: cultured pulmonary artery smooth muscle cells; assay: 14C-polyamine uptake in cultured pulmonary artery smooth muscle cells; type: cell-based, bovine
# Method: After this 30 minute period the cell-associated radioactivity was then measured to determine the uptake of polyamine by the cell culture.
# Cell associated radioactivity was then measured.
# [18] = conjugate 0-20 μM with 3 μM 14C-polyamine, 30 minutes
compound,measurement,setting,value
"NCCCC(N)(C(=O)O)C(F)F (stereo not drawn) [DFMO, α-difluoro-methylornithine]",Fibronectin Synthesis,[1]; Hypoxic,0.09 OD/mg protein
same,Fibronectin Synthesis,[1]; Normoxic,0.07 OD/mg protein
same,"14C-Polyamine uptake, PUT",[2],0.67 ± 0.01 pmoles/min/mg protein
same,"14C-Polyamine uptake, SPD",[2],7.3 ± .06 pmoles/min/mg protein
same,"14C-Polyamine uptake, PUT",[3],1.1 ± 0.04 pmoles/min/mg protein
same,"14C-Polyamine uptake, SPD",[3],1.6 ± .08 pmoles/min/mg protein
same,"Cellular Polyamine Content, SPD",[4],6100 pmoles/mg protein
same,"Cellular Polyamine Content, SPM",[4],8824 pmoles/mg protein
same,"Cellular Polyamine Content, SPD",DX5 human cancer cells,4191 pmoles/mg protein
same,"Cellular Polyamine Content, SPM",DX5 human cancer cells,6831 pmoles/mg protein
same,"Cellular Polyamine Content, SPD",K562 human cancer cells,15791 pmoles/mg protein
same,"Cellular Polyamine Content, SPM",K562 human cancer cells,17024 pmoles/mg protein
same,"Cellular Polyamine Content, SPD",[5],15809 pmoles/mg protein
same,"Cellular Polyamine Content, SPM",[5],15083 pmoles/mg protein
same,3H-Vinblastine Content,[6],840 ± 28 pmoles/mg protein
same,3H-Vinblastine Content,[7],195 ± 8 pmoles/mg protein
same,cure rate,[8],33%
same,increase in survival time,[9],two
same,toxicity to cells,"[10]; DFMO at 1 mM concentration, MDR-positive variant of MES-SA",not toxic
same,effect of DFMO treatment on sensitivity to vinblastine,"[10]; DFMO treatment, vinblastine concentrations up to 5 μM",complete resistance
same,toxicity to cells,[11]; DFMO at 1 mM concentration,not toxic
same,effect of DFMO treatment on the IC50 value for vinblastine,[11]; DFMO treatment,failed to affect
same,toxicity to cells,[12],not toxic
same,toxicity to cells,[13],not toxic
same,activation at 1000 µM,[14],~350%
CC[C@]1(O)C[C@@H]2CN(CCc3c([nH]c4ccccc34)[C@@](C(=O)OC)(c3cc4c(cc3OC)N(C)[C@H]3[C@@](O)(C(=O)OC)[C@H](OC(C)=O)[C@]5(CC)C=CCN6CC[C@]43[C@@H]65)C2)C1 [Vinblastine],IC50,[15],7 nM
same,IC50,[16],116 nM
same,IC50,"[10]; read-out: IC50, vinblastine cytotoxicity",600 nM
same,IC50,[10]; read-out: IC50 for vinblastine,500 nM
same,IC50,"[11]; Homo sapiens, MES-SA, read-out: IC50, vinblastine cytotoxicity",5 nM
COc1ccc(CCN(C)CCCC(C#N)(c2ccc(OC)c(OC)c2)C(C)C)cc1OC (stereo not drawn) [verapamil],suppression of polyamine transport,"[17]; agents known to inhibit the MDR, data not shown, 30 min",50-75%
Spd-BSA: conjugate between bovine serum albumin and spermidine using glutaraldehyde as a coupling agent,uptake of 14C-putrescine,[17]; [18],inhibited
same,uptake of 14C-spermidine,[17]; [18],inhibited
